Laboratory results: US11304939B2, “Methods for treating oral cancers” (Chang Gung University, priority 2020, dated 2022)

What was measured:
[1] = test system: SAS cells; experiment: MTT cell viability assay, SAS cells; type: cell-based; settings: 48 hours; for cell viability / proliferation (MTT): vs vehicle control
Method: (§1) For cell viability assay, approximately 5×10^4 cells were seeded into each well of a 96-well plate, and treated with vehicle control or inhibitors at the indicated concentrations for 48 hours in complete medium, followed by MTT viability assay. The absorbance was read at 540 nm in a multiwell spectrophotometer (SpectraMax M2; Molecular Devices, USA). All samples were run in triplicate. For apoptosis assay, cells were plated in 6-well dishes, and treated with vehicle control or various inhibitors at the indicated concentrations for 48 hours. Cells were then harvested, washed with PBS, and stained with 2 μl an FITC-conjugated Annexin V antibody (Invitrogen, USA) and 50 μg/ml propidium iodide (Sigma-Aldrich, USA), followed by flow cytometry analysis (Attune NxT; Invitrogen, USA) and data analysis by FlowJo software (Tree Star, Inc.).

[2] = test system: OEC-M1 cells; experiment: MTT cell viability assay, OEC-M1 cells; type: cell-based; settings: 48 hours; for cell viability / proliferation (MTT): vs vehicle control
Method: as §1

[3] = test system: SAS, OC3, and OEC-M1 cells; experiment: MTT cell viability assay, one range over three OSCC cell lines; type: cell-based; settings: OECM1
Method: as §1

[4] = test system: SAS cells; experiment: colony-forming assay, SAS cells; type: cell-based
[5] = test system: OEC-M1 cells; experiment: colony-forming assay, OEC-M1 cells; type: cell-based
[6] = test system: OSCC cells; experiment: apoptosis assay (Annexin V staining), OSCC cells; type: cell-based; settings: increasing concentration
Method: as §1

[7] = test system: AKT; experiment: immunoblotting of phosphorylation of AKT; type: cell-based; settings: after UV exposure
Method: After treatments, whole-cell lysates from each sample were prepared by lysed with RIPA lysis buffer (1% NP_40, 20 mM Tris-HCl (pH 7.5), 150 mM NaCl, 1 mM Na3VO4, 5 mM EDTA (pH 8.0), 10% glycerol, PMSF, and 0.2% protease inhibitor) for 15-30 minutes on ice, and centrifuged at 15,000×g for 20 min at 4° C. Equal amounts of protein from each sample were fractionated by SDS-PAGE, and transferred to a PVDF membrane, which was incubated with the appropriate primary antibody. Proteins were detected with HRP-conjugated secondary antibodies and ECL substrate (PerkinElmer, USA).
In the present study, the efficacy of the PI3K inhibitors (e.g., BYL719, GDC-0941, and GSK1059615) toward eliminating OSCC cell lines (including SAS, OEC-M1, and OC3) was examined. First of all, cell proliferation assays after the PI3K inhibitors (i.e., BYL719, GDC-0941, and GSK1059615) treatments were performed, and the results were provided in FIG. 3A. […] The IC50 for BYL719 in the SAS, OC3, and OECM1 cell lines ranged from 8 to 20 μM (FIG. 3A). Another indication for measuring anti-cancer activity was by investigating the colony-forming ability of SAS and OEC-M1 cells treated with BYL719. […] The effects for PI3K inhibitors on the PI3K/AKT/mTOR signaling pathway were studied as well.

[8] = test system: SAS cells xenograft; experiment: SAS cell line-derived xenograft (OSCC CDX) tumor growth; type: in vivo, NOD/SCID mice
Method: NOD/SCID mice and NOD.Cg-Prkdcscid Il2rgtm1Wjl/SzJ (NSG) mice were housed in an animal facility at Chang Gung University. For SAS cell line-derived xenograft (CDX) animal model, SAS cells were prepared in serum-free DMEM (5×10^6 cells per ml). SAS cell suspensions (100 μl) were injected subcutaneously into NOD/SCID mice (6-8 weeks), and tumors were established after 3-4 weeks. Once xenografts reached 300-500 mm^3, mice were randomly divided into the treatment groups or control groups. PF477736 was used at the dose of 10 or 20 mg/kg, and administered intraperitoneally 4 days/week. BYL719 was used at the dose of 25 or 50 mg/kg, and administered orally 5 days/week. Cisplatin was used at the dose of 5 mg/kg, and administered intraperitoneally 2 days/week. During the course of treatment (two to three weeks), the tumor size was monitored twice weekly, and the tumor volumes were calculated.

[9] = test system: patient #1 PDX; experiment: OSCC PDX model, patient #1, tumor growth; type: in vivo, NSG mice; settings: PF477736 20 mg/kg; for growth of PDX tumors vs control: Cisplatin 5 mg/kg, combined vs control p=0.0024
Method: (§2) For OSCC PDX animal model, three patients of newly diagnosed were recruited, and written consents were obtained in accordance with the protocols approved by the Institutional Review Board of Chang Gung Memorial Hospital. Patient tumor explants were prepared from surgical specimens, and engrafted into NSG mice within 2 hours. Briefly, fresh tumor tissues were rinsed in PBS containing an antibiotic-antimycotic solution (Gibco, USA), and chopped into small pieces (˜1 mm^3). Each NSG mouse was subcutaneously grafted with 50-100 mg tumors in the left flank. When tumors reached 400-500 mm^3 in size, animals were randomly assigned into control and different treatment groups. Treatments for each single drug were the same as those used in the SAS CDX model as described above. For combined treatments, for the combination therapy of Cisplatin and PF477736, Cisplatin was used at the dose of 5 mg/kg, and administered intraperitoneally 2 days/week for one week; whilst PF477736 was used at the dose of 20 mg/kg, and administered intraperitoneally 4 days/week for one week; and for the combination therapy of PF477736 and BYL719, PF477736 was used at the dose of 20 mg/kg, and administered intraperitoneally 4 days/week for one week; whilst BYL719 was used at the dose of 50 mg/kg, and administered orally 5 days/week for two weeks. Tumors were measured with calipers, and the volume was calculated as ½×length×width^2. Three PDX models in total were evaluated for response to single treatments or combined treatments. All animal experiments were approved by the Institutional Animal Care and Use Committee of Chang Gung University.

[10] = test system: patient #2 PDX; experiment: OSCC PDX model, patient #2, tumor growth; type: in vivo, NSG mice; settings: PF477736 20 mg/kg; for growth of PDX tumors vs control: Cisplatin 5 mg/kg, combined vs control p=0.006
Method: as §2

[11] = test system: patient #3 PDX; experiment: OSCC PDX model, patient #3, tumor growth; type: in vivo, NSG mice; settings: Cisplatin 5 mg/kg, PF477736 20 mg/kg, combined vs control p=0.03
Method: For OSCC PDX animal model, three patients of newly diagnosed were recruited, and written consents were obtained in accordance with the protocols approved by the Institutional Review Board of Chang Gung Memorial Hospital. Patient tumor explants were prepared from surgical specimens, and engrafted into NSG mice within 2 hours. Briefly, fresh tumor tissues were rinsed in PBS containing an antibiotic-antimycotic solution (Gibco, USA), and chopped into small pieces (˜1 mm^3). Each NSG mouse was subcutaneously grafted with 50-100 mg tumors in the left flank. When tumors reached 400-500 mm^3 in size, animals were randomly assigned into control and different treatment groups. Treatments for each single drug were the same as those used in the SAS CDX model as described above. […] Tumors were measured with calipers, and the volume was calculated as ½×length×width^2. Three PDX models in total were evaluated for response to single treatments or combined treatments. […]

[12] = test system: SAS cells; experiment: apoptosis assay (Annexin V and PI staining), SAS cells; type: cell-based; settings: 48 hours
Method: as §1

[13] = test system: OC3 cells; experiment: apoptosis assay (Annexin V and PI staining), OC3 cells; type: cell-based; settings: 48 hours
Method: as §1

[14] = test system: OEC-M1 cells; experiment: apoptosis assay (Annexin V and PI staining), OEC-M1 cells; type: cell-based; settings: 48 hours
Method: as §1

[15] = target: T1, CHK1 (Homo sapiens, UniProt O14757); experiment: immunoblotting of UV-induced phosphorylation of CHK1 at Ser296 in SAS cells; settings: SAS cells after UV exposure
T1 sequence (O14757 1-476): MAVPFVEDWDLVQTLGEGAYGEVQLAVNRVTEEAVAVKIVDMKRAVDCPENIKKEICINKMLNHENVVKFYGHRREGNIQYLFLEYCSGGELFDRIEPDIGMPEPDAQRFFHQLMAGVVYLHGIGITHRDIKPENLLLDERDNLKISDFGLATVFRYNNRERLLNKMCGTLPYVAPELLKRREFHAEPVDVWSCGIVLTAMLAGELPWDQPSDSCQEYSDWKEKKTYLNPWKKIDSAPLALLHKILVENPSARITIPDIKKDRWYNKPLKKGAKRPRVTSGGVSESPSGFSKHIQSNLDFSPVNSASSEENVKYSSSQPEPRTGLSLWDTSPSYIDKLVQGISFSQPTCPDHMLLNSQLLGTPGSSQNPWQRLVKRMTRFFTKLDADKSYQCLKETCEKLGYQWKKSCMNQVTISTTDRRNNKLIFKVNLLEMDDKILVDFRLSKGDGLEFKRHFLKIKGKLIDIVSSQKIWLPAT
Method: After treatments, whole-cell lysates from each sample were prepared by lysed with RIPA lysis buffer (1% NP—40, 20 mM Tris-HCl (pH 7.5), 150 mM NaCl, 1 mM Na3VO4, 5 mM EDTA (pH 8.0), 10% glycerol, PMSF, and 0.2% protease inhibitor) for 15-30 minutes on ice, and centrifuged at 15,000×g for 20 min at 4° C. Equal amounts of protein from each sample were fractionated by SDS-PAGE, and transferred to a PVDF membrane, which was incubated with the appropriate primary antibody. Proteins were detected with HRP-conjugated secondary antibodies and ECL substrate (PerkinElmer, USA).
On the molecular level, the biochemical effects of the three CHK1 inhibitors in SAS cells were characterized. DNA damage was first induced by UV exposure, and the CHK1 inhibitors were then applied to the injured cells.

| SMILES | cell viability / proliferation (MTT) [1] | cell viability / proliferation (MTT) [2] | colony-forming ability [4] | colony-forming ability [5] | phosphorylation of AKT [7] | growth of PDX tumors vs control [9] | growth of PDX tumors vs control [10] | growth of PDX tumors vs control [11] | also measured |
| --- | --- | --- | --- | --- | --- | --- | --- | --- | --- |
| Cc1nc(NC(=O)N2CCC[C@H]2C(N)=O)sc1-c1ccnc(C(C)(C)C(F)(F)F)c1 [BYL719, Alpelisib] | clear reduction in proliferation | clear reduction in proliferation | compromised in a dose-dependent manner | compromised in a dose-dependent manner | specifically inhibited phosphorylation of AKT |  |  |  | IC50 [3]: 8 to 20 µM; cell apoptosis (Annexin V staining) [6]: gradually elevation in apoptosis; tumor growth vs control ([8]; 50 mg/kg orally 5 days/week, p=0.011): significantly suppressed tumor growth; tumor growth vs control ([9]; BYL719 50 mg/kg, monotherapy p=0.66, combined p=0.844): could not inhibit tumor growth; tumor growth vs control ([10]; BYL719 50 mg/kg, monotherapy p=0.16, combined p=0.036): slightly inhibited tumor growth |
| N.N.[Cl][Pt][Cl] [Cisplatin] |  |  |  |  |  | partially but not significantly inhibit the growth | partially but not significantly inhibit the growth | partially but not significantly inhibit the growth | tumor growth vs control ([8]; 5 mg/kg intraperitoneally 2 days/week, p=0.03): exhibited an ability to inhibit tumor growth |
| CS(=O)(=O)N1CCN(Cc2cc3nc(-c4cccc5[nH]ncc45)nc(N4CCOCC4)c3s2)CC1 [GDC-0941, Pictilisib] | clear reduction in proliferation | clear reduction in proliferation |  |  | specifically inhibited phosphorylation of AKT |  |  |  |  |
| O=C1NC(=O)/C(=C/c2ccc3nccc(-c4ccncc4)c3c2)S1 [GSK1059615, (Z)-5-((4-(pyridin-4-yl)quinolin-6-yl)methylene)thiazolidine-2,4-dione] | clear reduction in proliferation | clear reduction in proliferation |  |  | specifically inhibited phosphorylation of AKT |  |  |  |  |
| COc1cccc(OCCCN)c1-c1cc(Nc2cnc(C#N)cn2)n[nH]1 [LY2606368, Prexasertib] | dose-dependent inhibition | dose-dependent inhibition |  |  |  |  |  |  |  |
| Cn1cc(-c2[nH]c3cc(NC(=O)[C@H](N)C4CCCCC4)cc4c3c2C=NNC4=O)cn1 [PF477736, (R)-2-amino-2-cyclohexyl-N-(2-(1-methyl-1H-pyrazol-4-yl)-6-oxo-5,6-dihydro-1H-[1,2]diazepino[4,5,6-cd]indol-8-yl)acetamide] | dose-dependent inhibition | dose-dependent inhibition | significantly impaired the colony-forming ability | significantly impaired the colony-forming ability |  | partially but not significantly inhibit the growth | partially but not significantly inhibit the growth | partially but not significantly inhibit the growth | IC50 ([1]; MTT, read-out: half-maximal inhibitory concentration (IC50)): 0.12 to 0.4 µM; IC50 ([2]; OECM1, MTT, read-out: half-maximal inhibitory concentration (IC50)): 10 µM; cell apoptosis (Annexin V and PI staining) [12]: significantly exacerbated cell apoptosis; cell apoptosis (Annexin V and PI staining) [13]: significantly exacerbated cell apoptosis; cell apoptosis (Annexin V and PI staining) [14]: significantly exacerbated cell apoptosis; tumor growth vs control ([8]; 10 mg/kg intraperitoneally 4 days/week, p=0.083): could barely suppress tumor growth; tumor growth vs control ([8]; 20 mg/kg intraperitoneally 4 days/week, p=0.081): could barely suppress tumor growth; phosphorylation of CHK1 at Ser296 [15]: specifically reduce phosphorylation of CHK1 |
